Here are results for nine compounds from PubChem BioAssay (NCI).

The structures appear in SMILES notation.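 Cells were grown in 96-well plates and exposed to each compound for 48 hours at five concentrations; endpoints were interpolated linearly between bracketing concentrations, or set to the highest concentration if not reached. At the GI50, growth is halved. TGI: total growth inhibition.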

What all share (experiment): NCI tumour cell line growth inhibition, 48 h
For test [1], the system named is HCT-116 colon.
The subject of test [2] is HOP-62 NSCLC.
Test [3] concerns HS 578T breast.
For test [4], the system named is LOX IMVI melanoma.
Test [5] has as its system NCI/ADR-RES ovarian.
Test [6] deals with SF-539 CNS.
The test system of test [7] is SK-OV-3 ovarian.
For test [8], the system named is SNB-75 CNS.
Test [9] deals with SR leukemia.
The test system of test [10] is UO-31 renal.

Consider `COc1ccc(O)c(C(=O)c2ccc(C(=O)O[C@@H]3CCCNC[C@H]3NC(=O)c3ccncc3)cc2)c1F`, for which the GI50 was 1.04 µM in test [1]; 0.514 µM in test [2]; 0.174 µM in [3]; 1.19 µM in [4]; 1.87 µM in test [5]; 0.0852 µM in [6]. Also, the GI50 in [7] was 0.946 µM; in test [8], 0.0788 µM; in test [9], 0.146 µM; in test [10], 0.375 µM. Moreover, the TGI in test [1] was greater than 25 µM; in [2], greater than 25 µM; in test [3] it was greater than 25 µM; in test [4], greater than 25 µM; in [5], 24.2 µM; in test [6], 0.779 µM. Also, the TGI in test [7] is greater than 25 µM; in [8] it was greater than 7.51 µM; in [9] it was greater than 5.21 µM; in [10], greater than 14 µM.

`COCCOC(=O)C1=C(C)NC2=C(C(=O)CC(c3ccccc3OC)C2)C1c1cccc(O)c1` (centres undefined): the GI50 in [1] is 12.8 µM; in test [2], 5.84 µM; in test [3] it was 2.04 µM; in test [4], 9.04 µM; in test [5] it was 35.9 µM; in test [6], 11.9 µM. The GI50 is 7.77 µM in [7], 2.43 µM in test [8], 8.76 µM in test [9] and 3.62 µM in [10]. In addition, the TGI was 35.4 µM in test [1]; 44.3 µM in test [2]; greater than 26.2 µM in test [3]; 30.4 µM in test [4]; greater than 100 µM in test [5]; 43.4 µM in test [6]. For the same compound, the TGI is 32.5 µM in test [7], 30.9 µM in test [8], greater than 59.6 µM in test [9] and 45.8 µM in [10].

Turning to `COc1cc(OC)c2c(=O)c(O)c(-c3ccc(OC)c(OC)c3)oc2c1`, the TGI is greater than 100 µM in test [1]; 19.2 µM in test [2]; 70.9 µM in test [3]; greater than 100 µM in [4]; 17.5 µM in test [5]; greater than 100 µM in test [6]. Besides, the TGI in test [7] is greater than 100 µM; in test [8] it was greater than 100 µM; in [9], 19.2 µM; in [10] it was greater than 100 µM.

On to `CN1CCN(c2ccc3nc(-c4cc(C(C)(C)C)c(O)c(C(C)(C)C)c4)[nH]c3c2)CC1`, for which the GI50 in [1] is 1.85 µM; in test [2] it was 2.29 µM; in test [3], 2.33 µM; in test [4], 1.83 µM; in test [5] it was 5.48 µM; in test [6], 1.79 µM. In addition, the GI50 in [7] is 8.83 µM; in [8], 1.42 µM; in test [9], 2.45 µM; in test [10], 1.7 µM. The TGI in [1] came to 4.06 µM; in [2], 5 µM; in [3] it was 5.51 µM; in test [4], 3.41 µM; in [5] it was 20 µM; in test [6] it was 3.35 µM. The TGI was 21.8 µM in test [7], 3.65 µM in [8], 8.58 µM in [9] and 3.08 µM in test [10].

As for `O=C1OC(c2ccc(O)c(-c3ccccc3)c2)(c2ccc(O)c(-c3ccccc3)c2)c2c(Cl)c(Cl)c(Cl)c(Cl)c21`, the TGI in [1], in test [2], in test [3], in [4], in [5] and in [6] was greater than 100 µM each time. Besides, the TGI in test [7], in test [8], in [9] and in test [10] was greater than 100 µM throughout.

In the case of `CCc1c2c(nc3cc4c(cc13)OCO4)-c1cc3c(c(=O)n1C2)COC(=O)[C@@]3(CC)OC(=O)CN`, the GI50 in test [1] is 0.0214 µM; in test [2], less than 0.01 µM; in test [3], 0.13 µM; in test [4], less than 0.01 µM; in test [5] it was less than 0.01 µM; in test [6], less than 0.01 µM. In addition, the GI50 in test [7], in test [8], in test [9] and in test [10] was less than 0.01 µM in each case. In addition, the TGI was 0.0666 µM in [1]; less than 0.01 µM in test [2]; 0.0902 µM in test [4]; less than 0.0104 µM in [5]; less than 0.01 µM in [6]; less than 0.0185 µM in [7]. Further, the TGI in [8] was less than 0.045 µM; in test [9], less than 0.0389 µM; in [10], 0.0794 µM.

As to `CO[C@@H]1[C@@H](OC2OC(C)C(OC3CC(C)(O)C(OC(=O)CC(C)C)C(C)O3)C(N(C)C)C2O)[C@@H](CC=O)C[C@@H](C)C(=O)/C=C/C2O[C@H]2C[C@@H](C)OC(=O)C[C@H]1OC(C)=O` (some centres undefined), the TGI was 30.8 µM in [1]; 37.8 µM in test [2]; greater than 100 µM in [3]; 30.4 µM in [4]; 98.9 µM in test [5]; 38.5 µM in test [6]. For the same compound, the TGI in [7] was greater than 100 µM; in test [8], greater than 100 µM; in test [9] it was 42.4 µM; in [10] it was 73.6 µM.

Turning to `O=C(O)C1C2CC3C(OC(=O)C31)C2Br` (centres undefined), the TGI in [1], in [2], in [3], in [4], in test [5] and in [6] was greater than 100 µM throughout. Moreover, the TGI was greater than 100 µM in test [7], greater than 100 µM in test [8], 26.2 µM in test [9] and greater than 100 µM in test [10].

On to `CCC(Sc1nnc2c3ccccc3n(CC)c2n1)C(=O)Nc1ccccc1OC` (centres undefined), for which the GI50 in test [1] is 48.5 µM; in test [2] it was 3.99 µM; in test [3], greater than 100 µM; in test [4] it was greater than 100 µM; in [5], greater than 100 µM; in test [6] it was greater than 100 µM. Also, the GI50 in [7] was greater than 100 µM; in [8] it was 10.8 µM; in test [9], greater than 100 µM; in test [10] it was 2.12 µM. Also, the TGI was greater than 100 µM in test [1]; greater than 71.9 µM in test [2]; greater than 100 µM in test [3]; greater than 100 µM in [4]; greater than 100 µM in test [5]; greater than 100 µM in [6]. Also, the TGI in test [7] is greater than 100 µM; in test [8], greater than 100 µM; in test [9], greater than 100 µM; in test [10], 6.65 µM.
